These results are taken from ChEMBL document CHEMBL2346580, “Design, synthesis and SAR investigation of thienosultam derivatives as ADAMTS-5 (aggrecanase-2) inhibitors” (Bioorg Med Chem Lett, 2013).

Series [1] deals with Stromelysin-1 (Homo sapiens) (UniProt P08254). The series can be described thus: Inhibition of MMP3 (unknown origin).
Series [2] deals with 72 kDa type IV collagenase (Homo sapiens) (UniProt P08253). The series can be described thus: Inhibition of MMP2 (unknown origin).
Series [3] has as its target T1, A disintegrin and metalloproteinase with thrombospondin motifs 4 (Homo sapiens) (UniProt O75173).
T1 sequence (whole entry): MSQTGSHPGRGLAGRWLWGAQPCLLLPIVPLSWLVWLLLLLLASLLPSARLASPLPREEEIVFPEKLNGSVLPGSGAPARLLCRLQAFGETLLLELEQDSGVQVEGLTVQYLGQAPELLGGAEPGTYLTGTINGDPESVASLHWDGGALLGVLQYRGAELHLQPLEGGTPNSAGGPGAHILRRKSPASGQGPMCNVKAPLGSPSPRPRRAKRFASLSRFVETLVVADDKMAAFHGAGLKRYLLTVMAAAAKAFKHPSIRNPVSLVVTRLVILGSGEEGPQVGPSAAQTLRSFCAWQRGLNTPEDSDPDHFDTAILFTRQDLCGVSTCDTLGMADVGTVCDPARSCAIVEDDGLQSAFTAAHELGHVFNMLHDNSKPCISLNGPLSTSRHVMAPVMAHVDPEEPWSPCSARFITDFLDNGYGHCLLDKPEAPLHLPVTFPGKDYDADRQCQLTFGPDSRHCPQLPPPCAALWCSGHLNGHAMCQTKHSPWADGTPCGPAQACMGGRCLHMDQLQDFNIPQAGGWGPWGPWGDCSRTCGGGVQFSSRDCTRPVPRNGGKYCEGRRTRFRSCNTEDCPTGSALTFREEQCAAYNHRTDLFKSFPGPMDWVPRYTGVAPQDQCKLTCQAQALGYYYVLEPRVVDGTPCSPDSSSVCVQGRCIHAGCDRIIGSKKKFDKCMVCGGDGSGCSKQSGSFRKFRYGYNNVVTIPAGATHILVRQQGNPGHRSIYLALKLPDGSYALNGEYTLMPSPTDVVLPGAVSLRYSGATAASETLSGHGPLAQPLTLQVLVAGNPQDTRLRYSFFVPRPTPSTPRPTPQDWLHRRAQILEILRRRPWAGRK
The series can be described thus: Inhibition of ADAMTS4 (unknown origin).

Series [4] addresses T2, A disintegrin and metalloproteinase with thrombospondin motifs 5 (Homo sapiens) (UniProt Q9UNA0).
T2 sequence (whole entry): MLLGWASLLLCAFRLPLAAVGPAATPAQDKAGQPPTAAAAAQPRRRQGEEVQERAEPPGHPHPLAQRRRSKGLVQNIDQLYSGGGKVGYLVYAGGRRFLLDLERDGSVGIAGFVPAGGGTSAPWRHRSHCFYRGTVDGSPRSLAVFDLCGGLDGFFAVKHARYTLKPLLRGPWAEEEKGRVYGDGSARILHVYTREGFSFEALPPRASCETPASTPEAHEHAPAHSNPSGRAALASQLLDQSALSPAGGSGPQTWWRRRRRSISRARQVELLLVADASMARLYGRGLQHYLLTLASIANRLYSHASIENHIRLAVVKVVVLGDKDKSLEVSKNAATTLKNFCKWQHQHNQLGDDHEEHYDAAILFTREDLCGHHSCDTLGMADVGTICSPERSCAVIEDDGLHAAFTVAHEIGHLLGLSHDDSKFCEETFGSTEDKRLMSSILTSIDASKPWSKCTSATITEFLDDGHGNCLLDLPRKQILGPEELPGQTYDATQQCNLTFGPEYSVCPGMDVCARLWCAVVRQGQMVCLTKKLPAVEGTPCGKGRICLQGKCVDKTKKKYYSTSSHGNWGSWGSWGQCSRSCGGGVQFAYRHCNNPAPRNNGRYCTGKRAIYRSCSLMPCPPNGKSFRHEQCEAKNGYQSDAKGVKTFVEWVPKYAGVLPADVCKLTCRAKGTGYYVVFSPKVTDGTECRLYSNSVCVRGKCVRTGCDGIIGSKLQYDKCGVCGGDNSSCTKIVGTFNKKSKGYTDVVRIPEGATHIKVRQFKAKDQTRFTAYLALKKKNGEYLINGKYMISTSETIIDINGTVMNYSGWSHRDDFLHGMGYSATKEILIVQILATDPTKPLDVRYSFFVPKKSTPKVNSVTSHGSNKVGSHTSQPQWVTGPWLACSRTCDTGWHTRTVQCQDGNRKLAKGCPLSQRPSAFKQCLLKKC
The series can be described thus: Inhibition of ADAMTS5 (unknown origin) using QF-peptide containing an aggrecanase cleavage site by FRET assay.

The nature of series [5]: Clearance in Sprague-Dawley rat at 1 mg/kg, iv and 5 mg/kg, po. The class given is ADME, organism-based. The note with it: in vivo.
Series [6] relates to Rattus norvegicus. Kind of series: (§1) Oral bioavailability in Sprague-Dawley rat at 5 mg/kg. In kind it is ADME, organism-based. The note with it: in vivo.
Series [7] can be described thus: Volume of distribution at steady state in Sprague-Dawley rat at 1 mg/kg, iv and 5 mg/kg, po. In kind it is ADME, organism-based. The note with it: in vivo, read-out: Vdss.
A short description of series [8]: Half life in Sprague-Dawley rat at 1 mg/kg, iv and 5 mg/kg, po. Conditions: in vivo. In kind it is ADME, organism-based.
Series [9] has as its system Rattus norvegicus. The series can be described thus: Cmax in Sprague-Dawley rat at 1 mg/kg, iv and 5 mg/kg, po. The note with it: in vivo. The class given is ADME, organism-based.
Series [10] is filed under the species Homo sapiens. Kind of series: Selectivity ratio of inhibition of MMP2 (unknown origin) to ADAMTS5 (unknown origin).
A short description of series [11]: AUC (0 to infinity) in Sprague-Dawley rat at 1 mg/kg, iv and 5 mg/kg, po. The class given is ADME, organism-based. The note with it: plasma.
Series [12] addresses Matrix metalloproteinase-14 (Homo sapiens) (UniProt P50281). Kind of series: Inhibition of MMP14 (unknown origin).
A short description of series [13]: as §1. In kind it is ADME, organism-based. Conditions: Sprague-Dawley, in vivo.
Series [14] has as its target T1, A disintegrin and metalloproteinase with thrombospondin motifs 4 (Homo sapiens). The series can be described thus: Inhibition of ADAMTS4 (unknown origin) at 10 uM.
Series [15] concerns the target T2, A disintegrin and metalloproteinase with thrombospondin motifs 5 (Homo sapiens). Kind of series: Inhibition of ADAMTS5 (unknown origin) using QF-peptide containing an aggrecanase cleavage site at 10 uM by FRET assay.

By half-life is commonly meant the time in which the quantity being followed falls by half. High values mean slow loss, low ones fast loss. A word on the Cmax: it is the maximum level reached in the sampled fluid or tissue. As usually defined, the AUC(0-inf) is the area under the concentration-time curve extrapolated to infinity. For orientation: bioavailability means the share of a dose that reaches the circulation, judged against a reference dose that is usually intravenous. In general, inhibition refers to how much of the control response was suppressed. High values mean strong suppression, low ones little suppression.

Chain of 72 kDa type IV collagenase (Homo sapiens) (P08253 110-660 limits assumed): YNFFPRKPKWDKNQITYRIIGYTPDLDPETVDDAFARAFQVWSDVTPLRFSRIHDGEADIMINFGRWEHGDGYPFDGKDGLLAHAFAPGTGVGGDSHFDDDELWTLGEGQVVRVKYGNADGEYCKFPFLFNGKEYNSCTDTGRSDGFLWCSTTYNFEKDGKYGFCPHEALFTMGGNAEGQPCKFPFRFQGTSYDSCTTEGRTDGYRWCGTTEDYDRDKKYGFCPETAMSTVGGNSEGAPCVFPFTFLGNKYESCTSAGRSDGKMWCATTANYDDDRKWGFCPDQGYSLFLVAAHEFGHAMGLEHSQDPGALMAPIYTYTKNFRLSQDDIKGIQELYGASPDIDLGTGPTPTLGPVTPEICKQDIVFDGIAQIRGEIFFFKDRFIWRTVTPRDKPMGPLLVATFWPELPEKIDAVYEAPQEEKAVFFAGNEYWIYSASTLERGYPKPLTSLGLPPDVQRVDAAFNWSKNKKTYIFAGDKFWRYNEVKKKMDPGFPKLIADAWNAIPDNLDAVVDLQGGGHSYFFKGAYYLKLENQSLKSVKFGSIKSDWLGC
Chain of Stromelysin-1 (Homo sapiens) (P08254 100-477 limits assumed): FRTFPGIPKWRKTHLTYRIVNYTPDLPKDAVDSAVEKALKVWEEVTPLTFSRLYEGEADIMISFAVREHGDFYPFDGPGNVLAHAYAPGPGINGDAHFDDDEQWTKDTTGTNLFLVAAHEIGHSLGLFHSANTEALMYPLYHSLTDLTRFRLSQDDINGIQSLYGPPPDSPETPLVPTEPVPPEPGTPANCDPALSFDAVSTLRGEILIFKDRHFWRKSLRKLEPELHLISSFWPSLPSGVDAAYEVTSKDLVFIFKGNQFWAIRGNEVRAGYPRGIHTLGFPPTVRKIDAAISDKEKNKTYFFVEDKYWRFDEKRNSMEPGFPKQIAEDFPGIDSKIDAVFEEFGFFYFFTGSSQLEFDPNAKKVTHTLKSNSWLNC

On to `CC(C)[C@H](NS(=O)(=O)c1ccc(-c2ccccc2)cc1)C(=O)O`, for which the INH in series [1] worked out at 0.038 µM; in series [2], 0.04 µM; in series [3] it was 3 µM; in [4], 8.2 µM.

Turning to `CCC(C(=O)O)N1Cc2sc(C#Cc3ccc(N(C)C)cc3)cc2S1(=O)=O` (racemic), the clearance in [5] is 58.3 mL/min/kg. The molecule also gave a F in [6] of 179%. Further, the Vd in [7] amounted to 0.34 L/kg. For the same molecule, the half-life in [8] is 2.8 h. In series [9], this molecule gave a Cmax of 29500 ng/mL. Moreover, the Ratio in [10] was > 20. In addition, the total exposure AUC(0-inf) in series [11] turned out to be 106000 ng·h/mL. Besides, the INH is > 30 µM in [1]; > 30 µM in series [12]; > 30 µM in series [2]; > 10 µM in series [3]; 1.5 µM in [4].

In the case of `CCC(C(=O)O)N1Cc2sc(-c3ccc(-c4cnn(Cc5ccccc5)c4)cc3)cc2S1(=O)=O` (racemic), the clearance in [5] is 278 mL/min/kg. Further, the bioavailability in series [13] was 47%. In series [7], the Vd came to 0.33 L/kg. Further, the half-life in [8] was 1.8 h. The highest level in series [9] (Cmax) was 3090 ng/mL. The Ratio in series [10] is > 75. This molecule displayed an AUC(0-inf) in [11] of 4730 ng·h/mL. Moreover, the INH in [1] is > 30 µM; in series [12] it was > 30 µM; in [2], > 30 µM; in series [3], 8 µM; in [4], 0.4 µM.

Regarding `CCC(C(=O)NO)N1Cc2sc(-c3ccc(-c4ccccc4)cc3)cc2S1(=O)=O` (racemic), the results for the INH in series [1], in series [12] and in [2] were 20 µM, < 30 µM and 0.3 µM, respectively. Besides, the inhibition came out at 1.7% in series [14] and 3% in [15].

Take `CCC(C(=O)NO)N1Cc2sc(-c3ccccc3)cc2S1(=O)=O` (racemic): the INH was determined as 5.1 µM in [1]; 1.2 µM in series [12]; 0.03 µM in series [2]; 1.1 µM in series [3]; 2.1 µM in series [4].

Take `CCC(C(=O)O)N1Cc2sc(-c3ccc(-c4ccc(N(C)C)nc4)cc3)cc2S1(=O)=O` (racemic): in series [10], the Ratio is > 4.5. In addition, the INH in series [2] was > 30 µM; in series [4], 7 µM.

`CCC(C(=O)O)N1Cc2sc(-c3ccc(-c4ccc(N(C)Cc5ccccc5)nc4)cc3)cc2S1(=O)=O` (racemic): the Ratio in series [10] is > 30. In addition, the INH was > 30 µM in [2] and 1 µM in series [4].

As for `CCC(C(=O)O)N1Cc2sc(-c3ccc(-c4ccc5ccn(C)c5c4)cc3)cc2S1(=O)=O` (racemic), the Ratio in series [10] amounted to 16.5. The INH stood at 16.5 µM in series [2] and 1 µM in series [4].

Regarding `CCC(C(=O)O)N1Cc2sc(-c3ccc(-c4ccc5cnn(C)c5c4)cc3)cc2S1(=O)=O` (racemic), the Ratio in [10] was determined as 13.3. The INH is 4 µM in series [2] and 0.3 µM in series [4].

`CCC(C(=O)O)N1Cc2sc(-c3ccc(-c4ccccc4)cc3)cc2S1(=O)=O` (racemic): in [10], the Ratio was determined as 0.78. Besides, the INH in series [1] was 1.2 µM; in series [12], < 5.1 µM; in [2], 1.8 µM; in series [3], 1.1 µM; in series [4] it was 2.1 µM. The inhibition in series [14] was determined as 1.6%.

As to `CCC(C(=O)O)N1Cc2sc(-c3ccc(-c4cccnc4)cc3)cc2S1(=O)=O` (racemic), the INH in series [2] was > 30 µM; in series [4], > 10 µM.

`CCC(C(=O)O)N1Cc2sc(-c3ccc(-c4cccs4)cc3)cc2S1(=O)=O` (racemic): in series [10], the Ratio is > 23. Moreover, the results for the INH in series [2] and in series [4] were > 30 µM and 1.3 µM, respectively.

As to `CCC(C(=O)O)N1Cc2sc(-c3ccc(-c4ccsc4)cc3)cc2S1(=O)=O` (racemic), the Ratio in series [10] was > 13. Further, the INH in series [2] was > 30 µM; in series [4] it was 2.3 µM.

Consider `CCC(C(=O)O)N1Cc2sc(-c3ccc(-c4cnn(C)c4)cc3)cc2S1(=O)=O` (racemic), for which the INH in series [2] is > 30 µM; in [4], > 10 µM.

On to `CCC(C(=O)O)N1Cc2sc(-c3ccc(/C=C/c4ccccc4)cc3)cc2S1(=O)=O` (racemic), for which, in series [10], the Ratio amounted to 2.79. Moreover, the INH was 3.9 µM in [2] and 1.4 µM in series [4].

As for `CCC(C(=O)O)N1Cc2sc(-c3ccccc3)cc2S1(=O)=O` (racemic), the INH in series [1] was 12 µM; in series [12], > 30 µM; in [2], 16 µM. The inhibition in series [14] came to 1.7%; in series [15] it was 3%.

Turning to `CCC(C(=O)O)N1Cc2sc(-c3ccn(C#Cc4ccccc4)n3)cc2S1(=O)=O` (racemic), the Ratio in [10] was > 7.5. The INH in series [2] is > 30 µM; in series [4], 4 µM.

In the case of `CCC(C(=O)O)N1Cc2sc(-c3ccn(Cc4ccccc4)n3)cc2S1(=O)=O` (racemic), the INH in series [2] is > 30 µM. The same molecule came in with an inhibition in [15] of 43.2%.

Consider `CCC(C(=O)O)N1Cc2sc(/C=C/c3ccc(C(F)(F)F)cc3)cc2S1(=O)=O` (racemic), for which the Ratio in series [10] worked out at 0.63. The results for the INH in series [2] and in series [4] were 2 µM and 3.2 µM, respectively.

Consider `CCC(C(=O)O)N1Cc2sc(C#CCC3CCCCC3)cc2S1(=O)=O` (racemic), for which the Ratio in series [10] is > 3.37. In addition, the INH was > 30 µM in series [2] and 8.9 µM in series [4].

Consider `CCC(C(=O)O)N1Cc2sc(C#Cc3cc(C(F)(F)F)cc(C(F)(F)F)c3)cc2S1(=O)=O` (racemic), for which, in [10], the Ratio was > 6.12. The results for the INH in series [2] and in series [4] were > 30 µM and 4.9 µM, respectively.

Regarding `CCC(C(=O)O)N1Cc2sc(C#Cc3ccc(-c4ccccc4)cc3)cc2S1(=O)=O` (racemic), the Ratio in series [10] was > 20. Further, the INH in [2] was > 30 µM; in series [4], 1.5 µM.

In the case of `CCC(C(=O)O)N1Cc2sc(C#Cc3ccccn3)cc2S1(=O)=O` (racemic), in series [10], the Ratio was > 3.23. The INH in series [2] is > 30 µM; in series [4], 9.3 µM.

With `CCC(C(=O)O)N1Cc2sc(N3CCN(c4ccccc4)CC3)cc2S1(=O)=O` (racemic), the INH in series [2] was > 30 µM. Also, the inhibition in series [15] was found to be 9%.
